Here are results for 1 substance from PMC7557804, “The Anti-Microbial Peptide (Lin-SB056-1)2-K Reduces Pro-Inflammatory Cytokine Release through Interaction with Pseudomonas aeruginosa Lipopolysaccharide” (Antibiotics, 2020).

“Also recorded” adds a separate entry of the source.

Assay [1] is described as follows: LAL assay, LPS neutralization. The format is biochemical, Escherichia coli. The settings on record: E. coli 011:B4 LPS 2 EU/mL, 37 °C. As for the experimental part: The ability of lin-SB056-1 and (lin-SB056-1)2-K to neutralize the activity of LPS was analyzed using a standardized LAL assay (Pierce LAL chromogenic endotoxin quantitation kit; Thermo Fisher Scientific). Peptides at different concentrations (2.4 to 19.25 μM) were pre-incubated with E. coli 011:B4 LPS (2 Endotoxin Units (EU)/mL; EU = unit of measurement for endotoxin activity) for 30 min (37 °C, shaking) in order to promote the interaction between the two molecules. LPS alone was used as positive control. Following incubation, peptide-treated and untreated samples were mixed with the LAL reagent (1:1 ratio) and incubated for 10 min at 37 °C. Subsequently, 100 μL of the chromogenic substrate were added and incubated with the samples for 6 min. The reaction was terminated by adding 100 μL of acetic acid (25% v/v), and absorbance was measured at 405 nm ([…]) using a microplate reader (Multiscan FC, Life Technologies Italia, Monza, Italy). The amount of peptide-sequestered LPS was determined as follows: LPS neutralization (%) = [100 − (ODpeptide/ODpositive control × 100)].

For assay [2], the system named is lung epithelial- and macrophage-cell lines stimulated with P. aeruginosa LPS. Kind of assay: LPS-induced production of pro-inflammatory cytokines, overall result. The class given is cell-based, Human. As for the experimental part: The anti-inflammatory potential of lin-SB056-1 and (lin-SB056-1)2-K was assessed by evaluating their ability to reduce LPS-induced production of pro-inflammatory cytokines by A549 cells and THP-1 macrophages. In order to ensure cytokine production, cell monolayers were stimulated with LPS from P. aeruginosa serotype 10 (purified by phenol extraction; Sigma-Aldrich, Milano, Italy) at a final concentration of 10 ng/mL (THP-1) and 800 ng/mL (A549). LPS concentrations used in the experiments were chosen based on preliminary assays aimed at identifying the minimum dose of the molecule able to stimulate cytokine production after 4 h of exposure. […] Following incubation, cell culture supernatants were collected, filter sterilized (0.22 µm) and employed for the quantification of cytokines and the assessment of cell viability.
Different pro-inflammatory cytokines (i.e., IL-1β, IL-6, IL-8 and TNF-α) were quantified in cell culture supernatants through a bead-based multiplex immunoassay (LEGENDplex multi-analyte flow assay kit; BioLegend, San Diego, CA, USA) following manufacturer’s instructions. […] Following consecutive washing steps, the beads were resuspended in the LEGENDplex wash buffer and the samples were analyzed by flow cytometry (BD Accuri C6 flow cytometer; BD Biosciences, Mountain View, CA, United States). […]

A further assay concerns P. aeruginosa. The settings on record: in vivo-like models of lung infection; cited from earlier work. From the text:
The global issue of anti-microbial resistance coupled with the lack of new treatments for bacterial infections has stimulated interest in the use of AMPs for therapeutic purposes. Due to their unique mechanism(s) of action and wide spectrum of biological activities, AMPs are emerging as a promising alternative to conventional anti-microbial agents for the management of antibiotic-resistant and biofilm-associated infections. Although mainly intended for topical use due to potential toxicity and reduced stability under physiological conditions, many different peptides with anti-micro ...

In turn, “[KWKIRVRLSA]2-K [(lin-SB056-1)2-K, dendrimeric derivative of lin-SB056-1]” returned an LPS neutralization in assay [1] (19.25 μM peptide, pre-incubation 30 min, shaking, LAL reagent 10 min, chromogenic substrate 6 min, absorbance 405 nm (OD450), vs peptide-untreated control, mean of three independent experiments) of roughly 100%. Moreover, the “LPS neutralization / LAL activity” value in assay [1] (2.4 to 19.25 μM peptide, 30 min) is recorded as “higher LPS-binding ability than lin-SB056-1; also recorded: reduction of LAL activity”. Further, in assay [2] (LPS and/or P. aeruginosa stimulation), the “anti-inflammatory effect compared to monomeric counterpart” value is “superior anti-inflammatory effect compared to its monomeric counterpart”. Also, the “decrease in LPS-induced production of pro-inflammatory cytokines (IL-1β, IL-6 and IL-8)” value in assay [2] (lung epithelial- and macrophage-cell lines, P. aeruginosa LPS) is recorded as “up to 80%”. In addition, in the assay on P. aeruginosa, the “anti-bacterial and anti-biofilm activity in in vivo-like models” value is “remarkable anti-bacterial and anti-biofilm activity”.
